# Measurements: paper PMC7671190 (Journal of medicinal chemistry, 2020)
# Like-named read-outs stand apart in the source and are kept apart here.
# Key:
# [1] = tested on: HIV/EBOV-GP pseudotype virus; experiment: organism not typed; format: cell-based, Ebola virus (EBOV)
# CYP3A4 = CYP3A4 (Homo sapiens, UniProt P08684)
# CYP2C9 = CYP2C9 (Homo sapiens, UniProt P11712)
# [2] = tested on: Wild type Ebola virus (1976 Mayinga variant); format: cell-based, Ebola virus (EBOV)
# [3] = tested on: wild type MARV (Lake Victoria, 2005 Angola); experiment: organism not typed; format: cell-based, Marburg virus (MARV); settings: Vero, read-out: MARV EC50, Vero cells
# [4] = A549, read-out: EC50, Ebola pseudovirus (in nM)
# Chain of CYP2C9 (P11712 whole entry): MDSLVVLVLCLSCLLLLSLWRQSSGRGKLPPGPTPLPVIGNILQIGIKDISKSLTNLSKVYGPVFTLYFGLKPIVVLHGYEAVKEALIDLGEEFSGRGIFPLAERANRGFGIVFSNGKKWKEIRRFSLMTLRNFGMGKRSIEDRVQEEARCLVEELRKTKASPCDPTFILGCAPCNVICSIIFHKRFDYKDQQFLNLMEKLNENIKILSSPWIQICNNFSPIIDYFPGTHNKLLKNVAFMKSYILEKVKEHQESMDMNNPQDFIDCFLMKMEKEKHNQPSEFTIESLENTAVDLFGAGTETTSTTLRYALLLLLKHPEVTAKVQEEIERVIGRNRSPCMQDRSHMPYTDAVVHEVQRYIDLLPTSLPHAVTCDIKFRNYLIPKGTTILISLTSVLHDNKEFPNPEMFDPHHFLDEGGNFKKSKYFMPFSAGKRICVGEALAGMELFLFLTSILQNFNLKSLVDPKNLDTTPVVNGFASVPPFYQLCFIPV
# Chain of CYP3A4 (P08684 whole entry): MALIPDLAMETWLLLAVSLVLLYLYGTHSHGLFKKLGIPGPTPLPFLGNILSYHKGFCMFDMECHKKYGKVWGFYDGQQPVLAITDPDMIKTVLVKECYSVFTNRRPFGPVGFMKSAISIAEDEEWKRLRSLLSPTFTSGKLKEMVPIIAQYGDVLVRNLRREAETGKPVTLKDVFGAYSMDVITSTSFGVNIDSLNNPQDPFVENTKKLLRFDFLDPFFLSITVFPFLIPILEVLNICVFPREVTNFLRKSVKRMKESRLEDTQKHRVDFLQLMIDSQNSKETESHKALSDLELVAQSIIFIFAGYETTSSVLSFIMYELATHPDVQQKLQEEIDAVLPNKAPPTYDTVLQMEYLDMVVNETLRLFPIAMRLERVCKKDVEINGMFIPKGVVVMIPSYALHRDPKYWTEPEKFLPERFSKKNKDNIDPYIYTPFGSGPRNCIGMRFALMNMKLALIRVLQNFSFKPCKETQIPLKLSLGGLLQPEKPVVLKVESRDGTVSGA
smiles,measurement,setting,value
"O=C(Nc1ccc(C23CC4CC(CC(C4)C2)C3)cc1)c1ccc(CN2CCCCC2)cc1 [Compound 32, N-(4-((1R,3R,5S)-adamantan-1-yl)phenyl)-4-(piperidin-1-ylmethyl)benzamide]",EC50,[1]; [4],< 100 nM
same,CYP450 inhibition CYP3A4 IC50,CYP3A4,did not inhibit
same,CYP450 inhibition CYP2C9 IC50,CYP2C9,did not inhibit
"O=C(NCCC1CCCCC1)c1ccc(CN2CCCCC2)cc1 [Compound 28, N-(2-Cyclohexylethyl)-4-(piperidin-1-ylmethyl)benzamide]",Drop in potency on replacing the aniline aromatic ring with a two-carbon linker,[1],2.3 fold
"COC(=O)c1ccc(NC(=O)c2ccc(CN3CCN(C)CC3)cc2)cc1 [Compound 7, Methyl 4-(4-((4-methylpiperazin-1-yl)methyl)benzamido)benzoate]",inhibition at 12.5 µM,"[1]; A549, read-out: Ebola pseudovirus A549 cells % inhibition",29%
"COC(=O)c1ccc(NC(=O)c2ccc(CN3CCCCC3)cc2)cc1 [Compound 5, Methyl 4-(4-(piperidin-1-ylmethyl)benzamido)benzoate]",EBOV (HeLa) EC50,[2],inactive
same,EC50,[3],< 10000 nM
"O=C(Nc1ccc(N2CCC(F)(F)CC2)cc1)c1ccc(CN2CCCCC2)cc1 [Compound 34, N-(4-(4,4-Difluoropiperidin-1-yl)phenyl)-4-(piperidin-1-ylmethyl)benzamide]",EC50,"[1]; A549, read-out: Ebola pseudovirus A549 cells EC50",< 1000 nM
"O=C(Nc1ccc(C23CC4CC(CC(C4)C2)C3)cc1)c1ccc(CN2CCOCC2)cc1 [Compound 33, N-(4-((1R,3R,5S)-Adamantan-1-yl)phenyl)-4-(morpholinomethyl)benzamide]",EC50,[1]; [4],< 100 nM
